The source made the active and inactive calls. The calls are words filed in the database; no cut-off is given here.
Legend:
[1] = system: Leptospira interrogans serovar Portlandvere; assay: Antimicrobial activity against Leptospira interrogans serovar Portlandvere infected golden Syrian hamster model of acute lethal leptospirosis assessed as survival at 5 mg/kg/day, ip once daily for 5 days administered 2 day after infection; assay type: functional; conditions: for survival at 5 mg/kg/day: route intraperitoneal
[2] = system: Leptospira interrogans serovar Portlandvere; assay: Antimicrobial activity against Leptospira interrogans serovar Portlandvere infected golden Syrian hamster model of acute lethal leptospirosis assessed as survival at 50 mg/kg/day, ip once daily for 5 days administered 2 day after infection; assay type: functional; conditions: route intraperitoneal
[3] = system: Leptospira interrogans serovar Portlandvere; assay: Antimicrobial activity against Leptospira interrogans serovar Portlandvere infected golden Syrian hamster model of acute lethal leptospirosis assessed as survival at 25 mg/kg/day, ip once daily for 5 days administered 2 day after infection; assay type: functional; conditions: route intraperitoneal
Syrian golden hamster = assay: Toxicity against Leptospira interrogans serovar Portlandvere infected golden Syrian hamster model of acute lethal leptospirosis assessed as induction of diarrhea at 50 mg/kg/day, ip once daily for 5 days administered 2 day after infection; assay type: organism-based, Mesocricetus auratus; set-up: route intraperitoneal; conditions: in vivo

| SMILES | Activity [1] | survival at 50 mg/kg/day [2] | survival at 25 mg/kg/day [3] | survival at 5 mg/kg/day [1] | Activity (Syrian golden hamster) |
| --- | --- | --- | --- | --- | --- |
| C[C@H]1c2cccc(O)c2C(=O)C2=C(O)[C@]3(O)C(=O)C(C(N)=O)=C(O)[C@@H](N(C)C)[C@@H]3[C@@H](O)[C@@H]21 | Active |  |  |  |  |
| COc1c(N2CCNC(C)C2)c(F)cc2c(=O)c(C(=O)O)cn(C3CC3)c12 (stereo unspecified) [GATIFLOXACIN] |  | 60% | 100% | 90% | Toxic |
| O=C(O)c1cn(C2CC2)c2cc(N3CCNCC3)c(F)cc2c1=O [CIPROFLOXACIN] | Active | 90% | 60% |  |  |
| C[C@H]1COc2c(N3CCN(C)CC3)c(F)cc3c(=O)c(C(=O)O)cn1c23 [LEVOFLOXACIN] |  | 95% | 95% | 40% |  |

Reference: ChEMBL document CHEMBL1150801, “Efficacy of fluoroquinolones against Leptospira interrogans in a hamster model” (Antimicrob Agents Chemother, 2007)
